Experimental data as given in the NIST ThermoML archive (doi:10.1016/j.fluid.2014.10.015).

Assay: molar heat capacity at constant pressure
Conditions: 101.33 kPa, Liquid, Small sample (50 mg) DSC

CC(=O)[O-].CCCCn1cc[n+](C)c1 [1-butyl-3-methylimidazolium acetate]
Conditions | molar heat capacity at constant pressure [J/K/mol]
253.15 K | 359.54
258.15 K | 361.57
263.15 K | 363.69
268.15 K | 365.9
273.15 K | 368.21
278.15 K | 370.61
283.15 K | 373.1
293.15 K | 378.36
298.15 K | 381.12
303.15 K | 383.98
313.15 K | 389.98
323.15 K | 396.35
333.15 K | 403.09
343.15 K | 410.2
353.15 K | 417.68
363.15 K | 425.53
373.15 K | 433.75
383.15 K | 442.34
393.15 K | 451.3
403.15 K | 460.63
413.15 K | 470.33
